Laboratory results as given in US4704403A, “3-(2,2,2-trisubstituted hydrazinium) propionates” (priority 1983, dated 1987).

Legend:
[1] = test system: hypertensive male rats of the Akamoto-Aoki line; test: Variation of arterial pressure upon intraperitoneal administration to hypertensive rats; assay type: in vivo
Experimental: The study of hypotensive properties of the compounds of this invention has been carried out of hypertensive male rats of the Akamoto-Aoki line aged 25-30 weeks. The animals were divided into groups (7-10 rats in each) and for 2 weeks before the beginning of the experiment they were subjected to an every-day training for adaptation to the unit for measurements of the arterial pressure. The systolic and diastolic arterial pressure were measured indirectly on the tail artery. The level of the arterial pressure prior to administration of the test compounds was measured by way of a triple determination thereof--2 days, one day and right before the administration of the preparation. The compounds were administered intraperitoneally in the form of a 2.5% aqueous solution or a 2.5% suspension in Twin-80 in the dose of 50 mg/kg. The measurement of the arterial pressure was effected 30 minutes, 1, 2, 3 and 4 hours and in some cases 24 hours after the administration of the preparation. For a number of compounds featuring a high efficiency, also determined was the dose causing reduction of the arterial pressure by 30% as compared with the starting level (ED30). The statistical processing of the data obtained was carried out using the Student certainty criterion.

[2] = test system: spontaneously hypertensive rats of the Akamoto-Aoki line; test: Hypotensive activity on spontaneously hypertensive rats at a single peroral administration; assay type: in vivo; settings: for Systolic arterial pressure: ethyl 40 mg/kg (initial 198), benzyl 40 mg/kg (initial 196)
[3] = test system: spontaneously hypertensive rats of the Akamoto-Aoki line; test: Systolic arterial pressure of spontaneously hypertensive rats upon a repeated peroral administration; assay type: in vivo
Experimental: Thus, after a four-days course of administration (once a day, per os) of the compounds according to the present invention an essential reduction of the arterial pressure in the test animals is observed which is not returned to the initial level even an expiration of four days after discontinuation of the preparation administration, whereas the hypotensive effect of nifedipine is manifested for only 8 hours.

[4] = Acute toxicity upon intraperitoneal administration to white mice; assay type: in vivo; settings: mouse, in vivo, ip, 14 days observation, average values with confidential limits at P=0.05
Experimental: (§1) The acute toxicity of the compounds according to the present invention was studied on white mice of both sexes with a mass of 20-25 g. A saturated aqueous solution of the compounds or a suspension in Tween-80 was administered to the animals intraperitoneally. The observation over the animals was carried out for 14 days. The results obtained were processed following the Litchfield-Wilkoxon method. As it follows from the data shown in Table 5 hereinbelow, the studied compounds have a very low acute toxicity, thus providing a large spectrum of the therapeutic effect.

white mice = test: as above; assay type: in vivo; settings: i.p.
Experimental: as §1

[5] = test system: arrhythmia caused by introduction of calcium chloride; test: Antiarrhythmic activity on the model of arrhythmia caused by calcium chloride (antagonism towards calcium); assay type: in vivo, mice; settings: for Dose of calcium chloride causing arrhythmia: control 85.0; for Dose of calcium chloride causing heart arrest: control 100.0
Experimental: In experiments on white mice with a mass of 18-25 g narcotized with urethane an electrocardiogram was recorded in the second standard lead. A 2% solution of calcium chloride was introduced into the tail vein at a constant rate (0.01 ml for 2 seconds). The dose of calcium chloride causing arrhythmia and the dose causing heart arrest were determined. In experimental groups the test compounds were administered 20-40 minutes prior to the beginning of the experiment intraperitoneally.

[6] = test system: adrenaline-caused arrhythmia; test: Adrenaline-caused arrhythmia in narcotized guinea pigs; assay type: in vivo; settings: for ED50: Cavia porcellus, iv, intravenously, dose giving antiarrhythmic effect in 50% of the experiments
Experimental: A further study of the antiarrhythmic activity of the compounds according to the present invention was connected with the determination of their effect on experimental arrhythmia induced by adrenaline.
Guinea pigs of both sexes with a mass of 400-700 g were narcotized with urethane (1,500 mg/kg intraperitoneally) The standard second-lead electrocardiogram was recorded. Arrhythmia was caused by a rapid injection (intravenously) of adrenaline in the dose of […]. To find out the protective antiarrhythmia effect of the compounds according to the present invention, the number of animals in which the total number of ectopic contractions was reduced by 50% and more as compared to the control experiments was recorded. […] The results obtained in this study of the antiarrhythmic properties of some of the compounds according to the present invention and novocainamide on the adrenaline model of arrhythmia are shown in Table 7.

[7] = 30 minutes, 50 mg/kg i.p. (nifedipine 1 mg/kg i.p.)
[8] = 1 hour, 50 mg/kg i.p. (nifedipine 1 mg/kg i.p.)
[9] = 2 hours, 50 mg/kg i.p. (nifedipine 1 mg/kg i.p.)
[10] = 4 hours, 50 mg/kg i.p. (nifedipine 1 mg/kg i.p.)
[11] = after four-days p.o. course, benzyl 40 mg/kg, allyl 50 mg/kg, nifedipine dose not given
[12] = p.o. once a day, benzyl 40 mg/kg, allyl 50 mg/kg, nifedipine dose not given
[13] = p.o., benzyl 40 mg/kg, allyl 50 mg/kg, nifedipine dose not given

With C[N+](C)(Cc1ccccc1)NCCC(=O)[O-] [3-(2,2-dimethyl-2-benzylhydrazinium)propionate] the “Average variation of the diastolic arterial pressure” value [1, 7] was -14 % of the initial, the “Average variation of the systolic arterial pressure” value [1, 7] was -14 % of the initial and the “Average variation of the diastolic arterial pressure” value [1, 8] was -14 % of the initial. The “Average variation of the systolic arterial pressure” value [1, 8] was -14 % of the initial, the “Average variation of the diastolic arterial pressure” value [1, 9] was -21 % of the initial and the “Average variation of the systolic arterial pressure” value [1, 9] was -15 % of the initial. The “Average variation of the diastolic arterial pressure” value [1, 10] was -21 % of the initial, the “Average variation of the systolic arterial pressure” value [1, 10] was -14 % of the initial and the “Average variation of the diastolic arterial pressure” value ([1]; 24 hours, 50 mg/kg i.p.) was -15 % of the initial. For the same compound, the “Average variation of the systolic arterial pressure” value ([1]; 24 hours, 50 mg/kg i.p.) was -9 % of the initial, the Systolic arterial pressure ([2]; 1 hour after single p.o.) was 155 mm Hg and the “Systolic arterial pressure, percent in parentheses (decrease from initial)” value ([2]; 1 hour after single p.o., ethyl 40 mg/kg, benzyl 40 mg/kg) was 21%. For the same compound, the Systolic arterial pressure ([2]; 3 hours after single p.o., allyl 50 mg/kg (initial 184)) was 150 mm Hg, the “Systolic arterial pressure, percent in parentheses (decrease from initial)” value ([2]; 3 hours after single p.o., ethyl 40, allyl 50, benzyl 40 mg/kg) was 23% and the Systolic arterial pressure ([2]; 5 hours after single p.o., allyl 50 mg/kg (initial 184)) was 153 mm Hg. The “Systolic arterial pressure, percent in parentheses (decrease from initial)” value ([2]; 5 hours after single p.o., ethyl 40, allyl 50, benzyl 40 mg/kg) was 22%, the Systolic arterial pressure ([2]; 24 hours after single p.o., allyl 50 mg/kg (initial 184)) was 168 mm Hg and the “Systolic arterial pressure, percent in parentheses (decrease from initial)” value ([2]; 24 hours after single p.o., ethyl 40, allyl 50, benzyl 40 mg/kg) was 14%. The “Systolic arterial pressure, 5th day” value [3, 11] was 166 mm Hg, the “Systolic arterial pressure, 8th day” value [3, 11] was 157 mm Hg and the “Systolic arterial pressure, 10th day” value [3, 11] was 177.8 mm Hg. For the same compound, the “Systolic arterial pressure, 1st day after administration” value ([3]; p.o. once a day, benzyl 40 mg/kg (initial 195.8), allyl 50 mg/kg (initial 176.6), nifedipine dose not given (initial 184.0)) was 148.6 mm Hg, the “Systolic arterial pressure, 2nd day before administration” value [3, 12] was 167.8 mm Hg and the “Systolic arterial pressure, 3rd day after administration” value [3, 12] was 157.4 mm Hg. The “Systolic arterial pressure, 4th day after administration” value [3, 12] was 155 mm Hg, the “Systolic arterial pressure, 4th day before administration” value [3, 12] was 156 mm Hg and the “Systolic arterial pressure, 3rd day before administration” value ([3]; p.o. once a day, benzyl 40 mg/kg, nifedipine dose not given) was 153 mm Hg. The “Percent in parentheses (change of systolic pressure from initial), 1st day after administration” value [3, 13] was 24%, the “Percent in parentheses (change of systolic pressure from initial), 2nd day before administration” value [3, 13] was 14% and the “Percent in parentheses (change of systolic pressure from initial), 3rd day after administration” value [3, 13] was 20%. The “Percent in parentheses (change of systolic pressure from initial), 4th day after administration” value [3, 13] was 21%, the “Percent in parentheses (change of systolic pressure from initial), 4th day before administration” value [3, 13] was 20% and the “Percent in parentheses (change of systolic pressure from initial), 5th day” value [3, 13] was 15%. The “Percent in parentheses (change of systolic pressure from initial), 8th day” value [3, 13] was 20%, the “Percent in parentheses (change of systolic pressure from initial), 10th day” value [3, 13] was 9% and the “Percent in parentheses (change of systolic pressure from initial), 3rd day before administration” value ([3]; p.o., benzyl 40 mg/kg, nifedipine dose not given) was 22%. The LD50 at 336 h [4] was 8100 mg/kg, the “Relative toxicity with respect to quinidine (LD50 / LD50 of quinidine)” value (“Relative toxicity … (LD50 / LD50 of quinidine)” below) (white mice) was 51.9 and the “Dose of calcium chloride causing arrhythmia” value ([5]; compound dose 5 mg/kg i.p.) was 90.9. For the same compound, the “Dose of calcium chloride causing heart arrest” value ([5]; compound dose 5 mg/kg i.p.) was 103.0, the “Dose of calcium chloride causing arrhythmia” value ([5]; compound dose 25 mg/kg i.p.) was 111.0 and the “Dose of calcium chloride causing heart arrest” value ([5]; compound dose 25 mg/kg i.p.) was 112.0.
In the case of C[N+](C)(CCc1ccccc1)NCCC(=O)[O-] [3-(2,2-dimethyl-2-phenylethylhydrazinium)propionate dihydrate], the LD50 at 336 h [4] is reported as 1850 mg/kg, the “Relative toxicity … (LD50 / LD50 of quinidine)” value (white mice) is reported as 11.8 and the “Dose of calcium chloride causing arrhythmia” value ([5]; compound dose 5 mg/kg i.p.) is reported as 88.7. The “Dose of calcium chloride causing heart arrest” value ([5]; compound dose 5 mg/kg i.p.) was 115.6, the “Dose of calcium chloride causing arrhythmia” value ([5]; compound dose 15 mg/kg i.p.) was 110.5 and the “Dose of calcium chloride causing heart arrest” value ([5]; compound dose 15 mg/kg i.p.) was 142.5. The “Efficiency (animals with ectopic contractions reduced by 50% and more)” value ([6]; 10.0 mg/kg intravenously) was 3/5, the “Efficiency (animals with ectopic contractions reduced by 50% and more)” value ([6]; 20.0 mg/kg intravenously) was 4/5 and the ED50 [6] was 7.8 mg/kg.
For CCN(CC)CCNC(=O)c1ccc(N)cc1 [Novocainamide, reference compound], the LD50 at 336 h [4] was 290 mg/kg, the “Relative toxicity … (LD50 / LD50 of quinidine)” value (white mice) was 1.85 and the “Dose of calcium chloride causing arrhythmia” value ([5]; compound dose 10 mg/kg i.p.) was 116.0. For the same compound, the “Dose of calcium chloride causing heart arrest” value ([5]; compound dose 10 mg/kg i.p.) was 120.0, the “Dose of calcium chloride causing arrhythmia” value ([5]; compound dose 30 mg/kg i.p.) was 127.0 and the “Dose of calcium chloride causing heart arrest” value ([5]; compound dose 30 mg/kg i.p.) was 138.0. The “Efficiency (animals with ectopic contractions reduced by 50% and more)” value ([6]; 2.5 mg/kg intravenously) was 1/5, the “Efficiency (animals with ectopic contractions reduced by 50% and more)” value ([6]; 5.0 mg/kg intravenously) was 1/5 and the “Efficiency (animals with ectopic contractions reduced by 50% and more)” value ([6]; 10.0 mg/kg intravenously) was 3/5. The “Efficiency (animals with ectopic contractions reduced by 50% and more)” value ([6]; 20.0 mg/kg intravenously) was 5/5 and the ED50 [6] was 7.6 mg/kg.
